{"source": "patent US20020025929A1", "about": "“METHOD OF BUILDING AND MAINTAINING BONE” (priority 1997, published 2002)", "key": {"[1]": {"system": "osteopenic ovariectomized rats", "experiment": "Static and dynamic histomorphometry of L-1 vertebra", "format": "in vivo, Sprague-Dawley rats", "conditions": "OVX rats; for BFR/BS (bone formation rate) / BFR/TV (bone formation rate) / BV/TV (cancellous bone volume) / MAR (mineral apposition rate) / MS/BS (mineralizing surface) / Tb.N (trabecular number) / Tb.Sp (trabecular separation) / Tb.Th (trabecular thickness): L-1 vertebra, mean ± SEM", "procedure": "Oral administration was by gavage in a vehicle comprising 1 mL/kg of body weight of a 20% aqueous solution of hydroxypropyl-β-cyclodextrin. Compound 1a was administered by gavage in a vehicle of 1 mL/kg of body weight of a 20% aqueous solution of cyclodextrin. The estrogen-treated control animals were administered 0.1 mg/kg/day 17α-ethynyl estradiol by gavage.\nSubcutaneous administration of PTH(1-34) was by injection of an acidified saline vehicle (0.001 N HCl and 2% heated-inactivated rat serum in physiological saline (Butler Co., Columbus, Ohio, USA).\nFor histomorphometry, L-1 vertebra were trimmed, using a low-speed diamond saw (Buehler Ltd., Lake Bluff, Ill.) and fixed in 70% ethanol. Specimens were stained for 4 days in Villanueva osteochrome bone stain (Polysciences Inc., Warrington, Pa.), destained, dehydrated in a graded series of alcohols, and defatted in acetone. L-1 vertebra were then infiltrated with methyl methacrylate (as described by Schenk et al. 1984) and embedded in a 75 ml: 19 ml: 2.5 g mixture of methyl methacrylate: dibutyl phthalate: benzoyl peroxide (Kodak, Rochester, N.Y.) and polymerized at room temperature. Longitudinal sections (4 and 8 μm) were cut on a Reichert-Jung 2065 microtome (Magee Scientific Inc., Dexter, Mich.). The 4 μm sections were stained with 6% silver nitrate (Von Kossa stain) before coverslipping; the 8 μm thick sections were mounted unstained for dynamic measurements. Sections were glued onto slides dipped in 0.5% gelatin, dried overnight, and coverslipped with Eukitt.\nHistomorphometric measurements were made using an Optiphot-2 fluorescence microscope (Nikon, Melville, N.Y.) and a semi-automatic digitizing system (SummaSketch III, Summagraphics Co., Seymour, Conn.; KSS Image Analysis, KSS Scientific Consultants, Magna Utah) coupled to a PowerPC 7100/66 (Apple Computer, Cupertino, Calif.), using the image capture functions of NIH Image 1.59 (NIH, Bethesda, Md.). For L-1, the entire marrow region within the cortical shell was measured to derive trabecular bone parameters. Specifically, measurements were made of cancellous bone volume (BV/TV, %), trabecular thickness (Tb.Th, μm), number (Tb.N, #/mm) and separation (Tb.Sp, μm), mineralizing surface, mineral apposition rate, and bone formation rate, as previously described (Frost 1983; Jee et al. 1985; Parfitt et al., 1987).\n(§1) In a second study, virgin Sprague-Dawley rats were bilaterally ovariectomized (except for the sham-operated group), the ovariectomized animals randomized, and allowed to lose bone for one month prior to treatment in the manner described above. The animal groups, each containing 7-8 animals, included sham-operated animals (SHAM); bilaterally ovariectomized animals (OVX); bilaterally ovariectomized animals treated with 0.01, 0.3 or 1 mg/kg/day of compound 1a, respectively, for three months; bilaterally ovariectomized animals treated subcutaneously with PTH(1-34) at a dose of 10 μg/kg/day for three months; bilaterally ovariectomized animals treated subcutaneously with PTH(1-34) at a dose of 10 μg/kg/day and orally with compound 1a at a dose of 0.3 mg/kg/day, both compounds administered for three months; bilaterally ovariectomized animals treated subcutaneously with PTH(1-34) at a dose of 10 μg/kg/day for forty-five days followed by gavage administration of vehicle for forty-five days; bilaterally ovariectomized animals treated subcutaneously with PTH(1-34) at a dose of 10 μg/kg/day for forty-five days followed by oral administration of only compound 1a at a dose of 0.3 mg/kg/day for forty-five days; and bilaterally ovariectomized animals treated with 17α-ethynyl estradiol administered orally at a dose of 0.1 mg/kg/day."}, "[2]": {"system": "osteopenic ovariectomized rats", "experiment": "Three point bending test of femora mid-shaft", "format": "in vivo, Sprague-Dawley rats", "parameters": "I (moment of inertia): unit not given beside the values", "conditions": "OVX rats; for E (Young's modulus) / Fu (ultimate force) / I (moment of inertia) / t (cortical thickness) / u (toughness) / σu (strength): femora mid-shaft, mean ± SEM", "procedure": "Bone strength was measured for the femoral neck, midshaft, and the L-6 vertebra. Femora were thawed before testing, and bone strength was measured on intact femora using a three point bending test. Load was applied midway between two supports that were 15 mm apart. The femora were positioned so the loading point was 7.5 mm proximal from the distal popliteal space and bending occurred about the medial-lateral axis. Specimens were tested in a saline bath at 37° C. Each specimen was submerged in the saline bath for three minutes before testing to allow equilibration of temperature. Load-displacement curves were recorded at a crosshead speed of 1 mm/sec using a servo-hydraulic materials testing machine (MTS Corp., Minneapolis, Minn.) and an x-y recorder (Hewlett Packard 7090A, Palo Alto, Calif.). The measurements included: cross-sectional moment of inertia (I), cortical thickness (t), ultimate load (Fu), ultimate stress (σu), Young's modulus (E), and toughness (u). These values were calculated as described previously (Turner and Burr 1993; Turner et al. 1996).\nas §1"}, "[3]": {"conditions": "3 months: PTH (1-34) 10 μg/kg/day s.c., PTH + 1a 0.3 mg/kg/day oral, EE2 0.1 mg/kg/day oral"}, "[4]": {"conditions": "PTH (1-34) 10 μg/kg/day s.c. 45 days, then vehicle or 1a 0.3 mg/kg/day oral 45 days"}, "[5]": {"conditions": "3 months: PTH (1-34) 10 μg/kg/day s.c., 1a 0.3 mg/kg/day oral + PTH, EE2 0.1 mg/kg/day oral"}}, "note": "Marks after values point to notes of the source that are not given here."}
{"substance": "PTH: N-terminal 1-34 fragment of human parathyroid hormone, hPTH(1-34, Sequence ID No. 3); PTH/vehicle = 45 days PTH then vehicle", "values": [{"measurement": "BFR/BS (bone formation rate)", "setting": "[1]; [3]", "value": "25.1 ± 5^s,o μ/d × 100"}, {"measurement": "BFR/TV (bone formation rate)", "setting": "[1]; [3]", "value": "94.5 ± 29.7^s.o %/y"}, {"measurement": "BV/TV (cancellous bone volume)", "setting": "[1]; [3]", "value": "38.9 ± 9^o %"}, {"measurement": "MAR (mineral apposition rate)", "setting": "[1]; [3]", "value": "1.0 ± .11^s,o μ/d"}, {"measurement": "MS/BS (mineralizing surface)", "setting": "[1]; [3]", "value": "24.82 ± 2.62^s,o %"}, {"measurement": "Tb.N (trabecular number)", "setting": "[1]; [3]", "value": "6.07 ± .86^s #/mm"}, {"measurement": "Tb.Sp (trabecular separation)", "setting": "[1]; [3]", "value": "104.1 ± 29^o μ"}, {"measurement": "Tb.Th (trabecular thickness)", "setting": "[1]; [3]", "value": "63.8 ± 11^s,o μ"}, {"measurement": "BFR/BS (bone formation rate)", "setting": "[1]; [4]", "value": "17.68 ± 5.9^s μ/d × 100"}, {"measurement": "BFR/TV (bone formation rate)", "setting": "[1]; [4]", "value": "55.17 ± 20.3^s %/y"}, {"measurement": "BV/TV (cancellous bone volume)", "setting": "[1]; [4]", "value": "20.1 ± 3.9^s %"}, {"measurement": "MAR (mineral apposition rate)", "setting": "[1]; [4]", "value": "0.89 ± .09^s,o μ/d"}, {"measurement": "MS/BS (mineralizing surface)", "setting": "[1]; [4]", "value": "19.62 ± 4.88^s %"}, {"measurement": "Tb.N (trabecular number)", "setting": "[1]; [4]", "value": "5.16 ± .98^s #/mm"}, {"measurement": "Tb.Sp (trabecular separation)", "setting": "[1]; [4]", "value": "160 ± 32^s μ"}, {"measurement": "Tb.Th (trabecular thickness)", "setting": "[1]; [4]", "value": "39.4 ± 7^s μ"}, {"measurement": "dynamic parameters MS/BS, MAR, BFR/BS, BFR/TV of L-1 vertebra (in words)", "setting": "[1]; PTH (1-34) discontinued (PTH/v) or switched to compound 1a (PTH/0.3) at 45 days", "value": "lowered MS/BS, BFR/BS and BFR/TV to OVX levels"}, {"measurement": "BV/TV and trabecular thickness of L-1 vertebra (in words)", "setting": "[1]; PTH (1-34) discontinued or switched to compound 1a at 45 days", "value": "decreased BV/TV and trabecular thickness to below Sham"}, {"measurement": "dynamic parameters MS/BS, MAR, BFR/BS, BFR/TV of L-1 vertebra (in words)", "setting": "[1]; continuous treatment", "value": "increased MS/BS, MAR, BFR/BS and BFR/TV to significantly above Sham and OVX"}, {"measurement": "BV/TV, trabecular thickness, trabecular number of L-1 vertebra (in words)", "setting": "[1]; continuous treatment, second study", "value": "improved BV/TV and trabecular thickness above OVX"}, {"measurement": "cortical thickness of femora mid-shaft (in words)", "setting": "[2]; PTH (1-34) discontinued after 45 days or switched to compound 1a", "value": "lowered cortical thickness to below Sham"}, {"measurement": "cortical thickness of femora mid-shaft (in words)", "setting": "[2]; continuous treatment (PTH 90 days)", "value": "increased cortical thickness above OVX"}, {"measurement": "E (Young's modulus)", "setting": "[2]; [5]", "value": "9854 ± 597"}, {"measurement": "Fu (ultimate force)", "setting": "[2]; [5]", "value": "202 ± 7^o"}, {"measurement": "I (moment of inertia)", "setting": "[2]; [5]", "value": "4.86 ± .26"}, {"measurement": "t (cortical thickness)", "setting": "[2]; [5]", "value": ".739 ± .023^o"}, {"measurement": "u (toughness)", "setting": "[2]; [5]", "value": "5.24 ± .52^o"}, {"measurement": "σu (strength)", "setting": "[2]; [5]", "value": "234 ± 9^o"}, {"measurement": "E (Young's modulus)", "setting": "[2]; [4]", "value": "8516 ± 580"}, {"measurement": "Fu (ultimate force)", "setting": "[2]; [4]", "value": "171 ± 4^o"}, {"measurement": "I (moment of inertia)", "setting": "[2]; [4]", "value": "4.72 ± .17"}, {"measurement": "t (cortical thickness)", "setting": "[2]; [4]", "value": ".630 ± .010^s"}, {"measurement": "u (toughness)", "setting": "[2]; [4]", "value": "3.81 ± .24^s,o"}, {"measurement": "σu (strength)", "setting": "[2]; [4]", "value": "205 ± 6^s,o"}, {"measurement": "load to failure (Fu) and toughness of femora mid-shaft (in words)", "setting": "[2]; 1a dose-dependent up to 1 mg/kg, EE2 0.1 mg/kg, PTH (1-34) 45 and 90 days, combination", "value": "improved Fu to above OVX"}]}
